Measured values as given in US20090117607A1, “Methods For Differential Detection Of Hypoxic Tissue From A Tissue Sample Of A Mammalian Subject” (priority 2007, published 2009).
Values joined by “and” are separate entries in the source; they are usually repeats but may differ in a detail not shown here. Equal entries are not always repeated. Where two headings read alike, the source gives them in different places.

Columns and labels:
HNSCC hypoxic tumors = details: 45 HNSCC patients, adjuvant cisplatin with tirapazamine; cited from earlier work
hypoxic cells = details: cited from earlier work
[1] = EF5-related toxicity in patients after IV EF5 administration; format: in vivo, human; details: 22 HNSCC patients
From the text: Human Subjects. The Institutional Review Board of the University of Pennsylvania Clinical Trials and Scientific Monitoring Committee at the University of Pennsylvania Abramson Cancer Center and the Cancer Therapeutics Evaluation Program of the National Cancer Institute approved this prospective trial of EF5. All patients signed an approved consent form for both the study and for privacy (HIPPA). Patients of all ethnic and gender groups were included. Eligible patients were those undergoing resection or biopsy of a HNSCC as clinically indicated. Exclusion criteria included patients with a history of grade III or IV peripheral neuropathy, pregnant or nursing patients and patients <18 years old. Coleman, et al., Int. J. Radiat. Oncol., Biol., Phys., 1990, 18, 389-393. EF5 Administration. The National Cancer Institute, Division of Cancer Treatment supplied EF5 in 100 mL vials containing an aqueous solution of 3 mg/mL EF5 also containing 5% dextrose and 2.4% ethanol. This EF5 solution was administered through a peripheral IV catheter, 24-48 hours before surgery at a rate no greater than 350 mL/hr and to a total dose of 9-21 mg/kg. Blood samples for drug levels were obtained before and 1 hour after the completion of drug administration, and at the time of surgery. […]

[2] = tested on: head and neck squamous cell carcinoma (HNSCC) tumor tissue; test: Quantitative fluorescence immunohistochemical analysis of EF5 binding in HNSCC tumor sections of patients; format: in vivo, human; design: key to Maximum CF95 Mean: % of CRB (maximal EF3 binding), scale 0-100%
Experimental: EF5 Administration. The National Cancer Institute, Division of Cancer Treatment supplied EF5 in 100 mL vials containing an aqueous solution of 3 mg/mL EF5 also containing 5% dextrose and 2.4% ethanol. This EF5 solution was administered through a peripheral IV catheter, 24-48 hours before surgery at a rate no greater than 350 mL/hr and to a total dose of 9-21 mg/kg. Blood samples for drug levels were obtained before and 1 hour after the completion of drug administration, and at the time of surgery. Calculation of drug time/dose concentration (area under the curve, AUC) allowed the absolute EF5 tissue binding level to be corrected for variations in drug dose and exposure time between patients. Koch, et al., Cancer Chemother. Pharmacol., 2001, 48, 177-187.
Tissue Acquisition and processing for EF5 Binding. 24-48 hours after completion of drug administration, tumors were resected or biopsied and placed in sterile, iced EXCELL 610 medium (JRH Biosciences, Lenexa, Kans.). In collaboration with the pathologist, tissue samples deemed unnecessary for clinical diagnosis were taken to the lab for processing and analysis.
IHC staining methods and quantitative fluorescence microscopy of EF5 in in situ tumor sections and EF3 in tissue cubes for cube reference binding (CRB) were performed as reported previously. Evans, et al., Cancer Res., 2004, 64, 1886-1892. CRB determination is an in vitro technique where tissue cubes are incubated in 200 μM EF3, a sister drug of EF5, under controlled hypoxic conditions for 3 hours. The goal of this procedure was to determine the maximum level of EF3 binding possible for each patient's tumor. This technique allowed normalization of the in situ EF5 binding to each tumor's maximum binding value after correction for the AUC. Koch, et al., Cancer Chemother. Pharmacol., 2001, 48, 177-187. These values were used to calculate the maximum and average ‘% CRB’ value for each tumor, as described previously and briefly below. Evans, et al., Cancer Res., 2000, 60, 2018-2024. Thus, EF5 binding values for each tumor tissue are reported on a scale of 0-100% allowing for comparisons within and between tumors.
Quantitative Image analysis. The quantitative analysis of tumor sections stained for EF3/EF5 has been previously described. Evans, J. Invest. Derm., 2006; Evans, et al., Int. J. Radiat. Oncol., Biol., Phys., 2001, 49, 587-596; Busch, et al., Adv Exp Med. Biol., 2003, 510, 37-43. Briefly, tissue sections were counterstained with Hoechst 33342 to identify the location of intact nuclei. These images were used to create bitmaps in order to generate binary masks of viable tissue regions. Masked regions of each section were analyzed for EF5-dependent immunofluorescence intensity using routines written in MatLab (The MathWorks, Inc., Natick, Mass.). EF5 intensity values of these regions were corrected for tissue section thickness, camera exposure time, relative lamp intensity, EF5 drug exposure (AUC) and CRB. Evans, et al., Cancer Res., 2000, 60, 2018-2024; Evans, et al., Int. J. Radiat. Oncol., Biol., Phys., 2001, 49, 587-596; Evans, et al, Clin. Cancer Res., 2004, 10, 8177-8184; Koch, et al., Cancer Chemother. Pharmacol., 2001, 48, 177-187. Data were then summarized by generating histograms of all positive pixels in the masked image, which were then converted into a cumulative frequency plot. The number of pixels at or below a given binding level can be identified from this plot. For example, CF95=20% would mean that 95% of the EF5 values in the image were at or below 20% of CRB. Terms to describe tissue oxygenation based on EF5 studies have been approximated by data from in vitro studies (Table 1). Koch, Method Enzymol., 2002, 352, 3-31. Normoxic conditions correspond to a CF95≈1%; for modestly/mildly hypoxic conditions, CF95≈3%; for moderately hypoxic conditions, CF95≈10%; for severely hypoxic conditions, CF95≈30%, and for anoxia, the CF95100%. The pO2 corresponding to these descriptive terms is found in Table 1. […]

HNSCC = details: meta-analysis of trials; cited from earlier work

In the case of `Nc1n[n+]([O-])c2ccccc2[n+]1[O-]` [tirapazamine], the “Outcome (local-regional failure) of patients with hypoxic tumors” value (HNSCC hypoxic tumors) is listed as “did as well as those with oxic tumors”.

For `O=C(Cn1ccnc1[N+](=O)[O-])NCC(F)(F)C(F)(F)F` [EF5], the “Maximum EF5 binding (%)” value (hypoxic cells; Anoxia, pO2 0%) is listed as 100%, the “Maximum EF5 binding (%)” value (hypoxic cells; Moderate hypoxia, pO2 0.5% (3.8 mm Hg)) is listed as 10% and the “Maximum EF5 binding (%)” value (hypoxic cells; Modest (mild) hypoxia, pO2 2.5% (19 mm Hg)) is listed as 3%. The “Maximum EF5 binding (%)” value (hypoxic cells; Normoxia, pO2 10% (76 mm Hg)) was 1%, the “Maximum EF5 binding (%)” value (hypoxic cells; Severe hypoxia, pO2 0.1% (0.76 mm Hg)) was 30% and the “EF5-related grade 1 and 2 toxicity” value [1] was “One patient each experienced EF5-related grade 1 and 2 toxicity”. The “EF5-related grade 3 or 4 toxicity” value ([1]; 30 days following EF5 administration) was “no episodes of EF5-related grade 3 or 4 toxicity”, the “Maximum CF95 Mean” value ([2]; Age <60 y (11)) was 25.66 and the “Maximum CF95 Mean” value ([2]; Age ≧60 y (11)) was 21.11. The “Maximum CF95 Mean” value ([2]; All patients (22)) was 23.38, the “Maximum CF95 Mean” value ([2]; Differentiation: Moderate (10)) was 20.00 and the “Maximum CF95 Mean” value ([2]; Differentiation: Moderate to poor, poor (7)) was 35.87. For the same compound, the “Maximum CF95 Mean” value ([2]; Differentiation: Well, well to moderate (5)) was 12.65, the “Maximum CF95 Mean” value ([2]; Gender: Men (18)) was 26.74 and the “Maximum CF95 Mean” value ([2]; Gender: Women (4)) was 8.27. For the same compound, the “Maximum CF95 Mean” value ([2]; Nodal stage N0-N1 (15)) was 17.96, the “Maximum CF95 Mean” value ([2]; Nodal stage N2-N3 (7)) was 35.00 and the “EF5 binding average CF95” value ([2]; individual patient tumor, average of all tissue sections, biopsy 24-48 h after EF5 IV 9-21 mg/kg) was 0.8 % CRB and 0.9 % CRB and 1.9 % CRB and 1.1 % CRB and 4.2 % CRB and 5.6 % CRB and 6.2 % CRB and 6.1 % CRB and 6.4 % CRB and 10.8 % CRB and 16.0 % CRB and 19.6 % CRB and 18.7 % CRB and 12.5 % CRB and 26.0 % CRB and 14.2 % CRB and 23.0 % CRB and 36.9 % CRB and 38.5 % CRB and 34.5 % CRB and 0.4 % CRB and 1.3 % CRB. The “EF5 binding maximum CF95” value ([2]; individual patient tumor, brightest binding of all tissue sections, biopsy 24-48 h after EF5 IV 9-21 mg/kg) was 1.4 % CRB (2×) and 2.8 % CRB and 6.0 % CRB and 7.9 % CRB and 8.2 % CRB and 8.9 % CRB and 10.0 % CRB and 16.4 % CRB and 17.8 % CRB and 19.4 % CRB and 23.1 % CRB and 25.4 % CRB and 30.7 % CRB and 35.8 % CRB and 36.0 % CRB and 61.7 % CRB and 66.0 % CRB and 66.5 % CRB and 66.6 % CRB and 1.2 % CRB and 1.3 % CRB.

For `COCC(O)Cn1ccnc1[N+](=O)[O-]` (stereo not drawn) [misonidazole], the “Effectiveness as hypoxic cell sensitizer” value (HNSCC) is listed as “could be identified in a subset of patients”.
